We go through 30 compounds from patent US10399932B2, “Inhibitors of indoleamine-2,3-dioxygenase for the treatment of cancer” (BRISTOL-MYERS SQUIBB COMPANY, priority 2015, dated 2019).

The IC50 is the concentration at which inhibition is half-maximal. High values mean lower potency, low ones higher potency.

Sequence of human IDO1 (P14902 whole entry): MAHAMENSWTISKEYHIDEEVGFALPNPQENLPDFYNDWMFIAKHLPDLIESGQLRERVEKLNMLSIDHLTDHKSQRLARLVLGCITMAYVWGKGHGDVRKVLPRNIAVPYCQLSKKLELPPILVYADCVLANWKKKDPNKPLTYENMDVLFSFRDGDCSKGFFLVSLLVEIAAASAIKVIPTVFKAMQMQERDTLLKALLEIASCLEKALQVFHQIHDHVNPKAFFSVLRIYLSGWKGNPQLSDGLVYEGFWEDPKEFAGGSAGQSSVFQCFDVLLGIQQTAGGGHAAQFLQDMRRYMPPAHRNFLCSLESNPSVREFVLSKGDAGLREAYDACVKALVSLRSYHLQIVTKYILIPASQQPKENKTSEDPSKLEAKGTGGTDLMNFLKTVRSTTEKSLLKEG

This assay has as its target human IDO1 (Homo sapiens, UniProt P14902). In words: Assessment of human IDO-1 inhibitory activity in HEK cells (human IDO1/HEK293 cells, Ehrlich reagent, absorbance at 490 nm). The class given is cell-based. Details: expressed in transfected cells. Particulars: In Vitro Potency in the HEK Human IDO-1 Cellular Assay. How it is done:
Exemplary compounds were tested for inhibition of IDO activity.
HEK293 cells were transfected with a pCDNA-based mammalian expression vector harboring human IDO1 cDNA (NM 002164.2) by electroporation. They were cultured in medium (DMEM with 10% FBS) containing 1 mg/ml G418 for two weeks. Clones of HEK293 cells that stably expressed human IDO1 protein were selected and expanded for IDO inhibition assay.
The human IDO1/HEK293 cells were seeded at 10,000 cells per 50 μL per well with RPMI/phenol red free media contains 10% FBS in a 384-well black wall clear bottom tissue culture plate (Matrix Technologies LLC) 100 nL of certain concentration of compound was then added to each well using ECHO liquid handling systems. The cells were incubated for 20 hours in 37° C. incubator with 5% CO2.
The compound treatments were stopped by adding trichloroacetic acid (Sigma-Aldrich) to a final concentration at 0.2%. The cell plate was further incubated at 50° C. for 30 minute. The equal volume supernatant (20 μL) and 0.2% (w/v) Ehrlich reagent (4-dimethylaminobenzaldehyde, Sigma-Aldrich) in glacial acetic acid were mixed in a new clear bottom 384-well plate. This plate was then incubated at room temperature for 30 minute. The absorbance at 490 nm was measured on Envision plate reader.
Compound IC50 values were calculated using the counts of 500 nM of a reference standard treatment as one hundred percent inhibition, and counts of no compound but DMSO treatment as zero percent inhibition.
The compound `CCC(CC(=O)O)c1ccc(N(CC2CC2)C2CCOCC2)c(NC(=O)Nc2ccc(Cl)cc2F)c1` (single isomer, unassigned) [Example 699, 3-(3-(3-(4-Chloro-2-fluorophenyl)ureido)-4-((cyclopropylmethyl)(tetrahydro-2H-pyran-4-yl)amino)phenyl)pentanoic acid] had an IC50 of under 5 nM.
The compound `CCC(CC(=O)O)c1cc(F)c(N(CC(C)C)CC(C)C)c(Nc2ccc3c(c2)OC(F)(F)O3)c1` (single isomer, unassigned) [Example 117, 3-(3-((2,2-difluorobenzo [d][1,3]dioxol-5-yl)amino)-4-(diisobutylamino)-5-fluorophenyl)pentanoic acid] had an IC50 of under 5 nM.
`CCOc1ccc(Nc2cc(C(CC)CC(=O)O)cc(F)c2N(CC(C)C)CC(C)C)cc1` (single isomer, unassigned) [Example 113, 3-(4-(diisobutylamino)-3-((4-ethoxyphenyl)amino)-5-fluorophenyl)pentanoic acid] returned an IC50 of under 50 nM.
Regarding `CCC(CC(=O)O)c1ccc(N(CC2CC2)C2CCOCC2)c(Nc2ccc(C#N)cc2)c1` (single isomer, unassigned) [Example 712, 3-(3-((4-cyanophenyl)amino)-4-((cyclopropylmethyl)(tetrahydro-2H-pyran-4-yl)amino)phenyl)pentanoic acid], the IC50 was under 5 nM.
Under `CC[C@@H](CC(=O)O)c1ccc(N(CC(C)C)C2CCS(=O)(=O)CC2)c(NC(=O)Nc2cc(C)on2)c1` (single isomer, unassigned) [Example 218] stands over 50 nM; under `CCOc1ccc(NC(=O)Nc2cc(C(CC)CC(=O)O)c(F)cc2N(CC(C)C)C2CCCCC2)cc1` (single isomer, unassigned) [Example 1109, 3-(4-(Cyclohexyl(isobutyl)amino)-5-(3-(4-ethoxyphenyl)ureido)-2-fluorophenyl) pentanoic acid], under 5 nM.
`CCOc1cc(Nc2cc(C(CC)CC(=O)O)ccc2N(CC(C)C)C2CCCCC2)ccc1Cl` (single isomer, unassigned) [Example 646, 3-(3-((4-chloro-3-ethoxyphenyl)amino)-4-(cyclohexyl(isobutyl)amino)phenyl)pentanoic acid] displayed an IC50 of under 5 nM.
Turning to `CCC(CC(=O)O)c1ccc(N(CC2CC2)C(C)C)c(Nc2ccc(Cl)cc2)c1` (single isomer, unassigned) [Example 717, 3-(3-((4-chlorophenyl)amino)-4-((cyclopropylmethyl)(isopropyl)amino)phenyl)pentanoic acid], the IC50 was under 5 nM.
With `COCC(CC(=O)O)c1ccc(N(CC(C)C)C2CCOCC2)c(NC(=O)Nc2cc(C)on2)c1` (single isomer, unassigned) [Example 1220, 3-(4-(Isobutyl(tetrahydro-2H-pyran-4-yl)amino)-3-(3-(5-methylisoxazol-3-yl)ureido)phenyl)-4-methoxybutanoic acid] the figure was over 50 nM; with `CCC(CC(=O)O)c1ccc(N(CC2CC2)C2CCOCC2)c(Nc2cnc(OC)nc2)c1` (single isomer, unassigned) [Example 709, 3-(4-((cyclopropylmethyl)(tetrahydro-2H-pyran-4-yl)amino)-3-((2-methoxypyrimidin-5-yl)amino)phenyl)pentanoic acid], under 5 nM; with `CCC(CC(=O)O)c1ccc(N2CCC[C@@H]2C(C)(C)O)c(NC(=O)Nc2ccc(C)cc2)c1` (single isomer, unassigned) [Example 779], over 50 nM.
With `CC(C)CN(c1ccc(C(CC(=O)O)C2CC2)cc1NC(=O)Nc1ccc(Cl)cc1F)C1CCOCC1` (single isomer, unassigned) [Example 1199 Enantiomer 2, 3-(3-(3-(4-Chloro-2-fluorophenyl)ureido)-4-(isobutyl(tetrahydro-2H-pyran-4-yl)amino)phenyl)-3-cyclopropylpropanoic acid], the IC50 is under 5 nM.
As to `CCN(c1ccc(C(CC(=O)O)c2ccccc2)cc1Nc1ccc(Cl)cc1F)C1CCOCC1` (single isomer, unassigned) [Example 582, 3-(3-((4-chloro-2-fluorophenyl)amino)-4-(ethyl(tetrahydro-2H-pyran-4-yl)amino)phenyl)-3-phenylpropanoic acid], the IC50 was under 50 nM.
The compound `CCOc1ccc(NC(=O)Nc2cc(C(CC)CC(=O)O)c(F)cc2N(CC(C)C)C2CCCCC2)c(F)c1` (single isomer, unassigned) [Example 1118, 3-(4-(Cyclohexyl(isobutyl)amino)-5-(3-(4-ethoxy-2-fluorophenyl)ureido)-2-fluorophenyl)pentanoic acid] displayed an IC50 of under 5 nM.
With `CCC(CC(=O)O)c1ccc(N2CCC[C@@H]2C(C)(C)O)c(NC(=O)Nc2ccc(OC)cc2)c1` (single isomer, unassigned) [Example 777] the figure was over 50 nM.
As for `CCc1ccc(Nc2cc(C(CC)CC(=O)O)ccc2N2CCC[C@H]2C(C)(C)O)cc1` (single isomer, unassigned) [Example 835], the IC50 is over 50 nM.
The compound `CCC(CC(=O)O)c1cc(NC(=O)Nc2ccc3c(c2)OCO3)c(N(CC(C)C)CC(C)C)cc1F` (single isomer, unassigned) [Example 1136, 3-(5-(3-(Benzo[d][1,3]dioxol-5-yl)ureido)-4-(diisobutylamino)-2-fluorophenyl) pentanoic acid] registered an IC50 of under 5 nM.
For `CCOc1ncc(Nc2cc(C(CC)CC(=O)O)ccc2N(CC)C2CCCOC2)cn1` (single isomer, unassigned) [Example 72, 3-(3-((2-ethoxypyrimidin-5-yl)amino)-4-(ethyl(tetrahydro-2H-pyran-3-yl)amino)phenyl)pentanoic acid], the IC50 was under 5 nM.
In turn, `CCC(CC(=O)O)c1ccc(N2CCC[C@H]2C(C)(C)O)c(NC(=O)Nc2ccc(Cl)cc2F)c1` (single isomer, unassigned) [Example 828] had an IC50 of over 50 nM.
`COCC(CC(=O)O)c1ccc(N(CC(C)C)C2CCCCC2)c(NC(=O)Nc2ccc(OC)cc2F)c1` (single isomer, unassigned) [Example 1239, 3-(4-(Cyclohexyl(isobutyl)amino)-3-(3-(2-fluoro-4-methoxyphenyl)ureido)phenyl)-4-methoxybutanoic acid]: the IC50 is under 5 nM.
Compound `CCOc1ccc(NC(=O)Nc2cc(C(CC)CC(=O)O)ccc2N2CCC[C@@H]2C(C)(C)O)cc1` (single isomer, unassigned) [Example 778] showed an IC50 of over 50 nM.
With `CCOc1ncc(Nc2cc(C(CC)CC(=O)O)ccc2N(CC2CC2)C2CCOCC2)cn1` (single isomer, unassigned) [Example 711, 3-(4-((cyclopropylmethyl)(tetrahydro-2H-pyran-4-yl)amino)-3-((2-ethoxypyrimidin-5-yl)amino)phenyl)pentanoic acid] the figure was under 5 nM.
Turning to `Cc1ccc(NC(=O)Nc2cc(C(C)CC(=O)O)c(F)cc2N(CC(C)C)C2CCCCC2)cc1` (single isomer, unassigned) [Example 957, 3-(4-(Cyclohexyl(isobutyl)amino)-2-fluoro-5-(3-(p-tolyl)ureido)phenyl)butanoic acid], the IC50 is under 5 nM.
On to `CCOc1ccc(CC(=O)Nc2cc(C(COC)CC(=O)O)ccc2N(CC(C)C)C2CCCCC2)cc1` (single isomer, unassigned) [Example 1242, 3-(4-(Cyclohexyl(isobutyl)amino)-3-(2-(4-ethoxyphenyl)acetamido)phenyl)-4-methoxybutanoic acid], for which the IC50 is under 50 nM.
Under `CCC(CC(=O)O)c1cc(F)c(N(CC(C)C)CC(C)C)c(Nc2ccc(Cl)cc2)c1` (single isomer, unassigned) [Example 115, 3-(3-((4-chlorophenyl)amino)-4-(diisobutylamino)-5-fluorophenyl)pentanoic acid] stands under 5 nM.
For `CC(CC(=O)O)c1ccc(N(CC(C)(C)O)C2CCCCC2)c(Nc2ccc(Cl)c(OCC(F)(F)F)c2)c1` (single isomer, unassigned) [Example 55, 3-(3-((4-chloro-3-(2,2,2-trifluoroethoxy)phenyl)amino)-4-(cyclohexyl(2-hydroxy-2-methylpropyl)amino)phenyl) butanoic acid], the IC50 is over 50 nM.
`CCC(CC(=O)O)c1cc(F)c(N(CC(C)C)CC(C)C)c(NC(=O)Nc2ccc(C)c(F)c2)c1` (single isomer, unassigned) [Example 982-2]: the IC50 is under 5 nM.
Turning to `CCC(CC(=O)O)c1ccc(N2CCC[C@H]2C(C)(C)O)c(Nc2cnc(OCC3CC3)nc2)c1` (single isomer, unassigned) [Example 838], the IC50 is over 50 nM.
With `CCC(CC(=O)O)c1ccc(N2CC3CC2CN3Cc2ccccc2)c(NC(=O)Nc2ccc(C)cc2)c1` (single isomer, unassigned) [667 E1] the figure was over 50 nM; with `CCC(CC(=O)O)c1cc(NC(=O)Nc2cc(C)no2)c(N(CC(C)C)C2CCCCC2)cc1F` (single isomer, unassigned) [Example 1115, 3-(4-(Cyclohexyl(isobutyl)amino)-2-fluoro-5-(3-(3-methylisoxazol-5-yl)ureido)phenyl)pentanoic acid], under 5 nM.
